Experimental data published in ChEMBL document CHEMBL1201862, “PubChem BioAssay data set” (2004).
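Interpolation was linear, between the two tested concentrations surrounding the appropriate level; five concentrations were tested over 48 hours in 96-well plates. GI50 marks 50% less growth.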 Calls of active or inactive are those of the source. No stated cut-off is given here; in the data, active = GI50 up to about 1.1 µM and inactive = higher.

What was measured:
Experiment in all cases: growth of human tumour cells (NCI), 48 h
786-0 = system: 786-0
A549 = system: A549
HT-29 = system: HT-29
KM12 = system: KM12
MOLT-4 = system: MOLT-4
NCI-H23 = system: NCI-H23
OVCAR-4 = system: OVCAR-4
SF-295 = system: SF-295
SK-MEL-28 = system: SK-MEL-28
SK-MEL-2 = system: SK-MEL-2
SK-OV-3 = system: SK-OV-3
SN12C = system: SN12C
SR = system: SR
SW-620 = system: SW-620
UACC-257 = system: UACC-257
UO-31 = system: UO-31
MCF7 = system: MCF7

Measured: GI50

CCc1nnc2sc(-c3ccc(-c4ccc(Cl)cc4Cl)o3)nn12
inactive: 786-0 32.9 µM | A549 73.5 µM | HT-29 96.2 µM | KM12 > 100 µM | MOLT-4 44.1 µM | NCI-H23 76.4 µM | OVCAR-4 84.7 µM | SF-295 43.1 µM | SK-MEL-28 > 100 µM | SK-MEL-2 58.7 µM | SK-OV-3 43.1 µM | SN12C 60.7 µM | SR 40.3 µM | SW-620 > 100 µM | UACC-257 43.9 µM | UO-31 67.8 µM

CCCCCCCC(CC(=O)NC(CO)C(=O)NC(CO)CC(C)C)OC(=O)CC(CCCCCCC)OC(=O)CC(CCCCCCC)OC1OC(C)C(O)C(OC2OC(C)C(OC(C)=O)C(O)C2O)C1O (stereo not drawn)
inactive: 786-0 5.6 µM | A549 11.2 µM | HT-29 3.41 µM | KM12 3.55 µM | MCF7 11.1 µM | MOLT-4 2.38 µM | NCI-H23 9.53 µM | OVCAR-4 5.01 µM | SF-295 12 µM | SK-MEL-28 6.64 µM | SK-OV-3 16.3 µM | SN12C 6.49 µM | SR 2.55 µM | SW-620 10.7 µM | UACC-257 2.22 µM | UO-31 15.4 µM

Cc1ccc(-c2ccc(Nc3c4ccccc4nc4ccccc34)cc2)cn1
active: MOLT-4 1.03 µM
inactive: 786-0 1.66 µM | A549 2.3 µM | HT-29 2.13 µM | KM12 3.8 µM | MCF7 2.26 µM | NCI-H23 4.66 µM | SF-295 2.37 µM | SK-MEL-28 2.51 µM | SK-MEL-2 1.87 µM | SN12C 3.89 µM | SR 2.07 µM | SW-620 4.01 µM | UACC-257 7.13 µM | UO-31 3.13 µM

O=C(COC(=O)c1ccccc1)c1ccc(Br)cc1
inactive: 786-0 2.41 µM | A549 17.2 µM | HT-29 15.6 µM | KM12 15.7 µM | MCF7 5.53 µM | MOLT-4 3.29 µM | NCI-H23 18.3 µM | SF-295 15.8 µM | SK-MEL-28 16.9 µM | SK-MEL-2 12.2 µM | SK-OV-3 19.1 µM | SN12C 10.4 µM | SR 2.15 µM | SW-620 6 µM | UACC-257 15.5 µM | UO-31 1.89 µM

NCCCN(CCCCN(CCCN)Cc1ccc2ccccc2c1)Cc1ccc2ccccc2c1
inactive: 786-0 1.62 µM | A549 1.68 µM | HT-29 1.7 µM | KM12 1.86 µM | MCF7 2.09 µM | MOLT-4 2.01 µM | NCI-H23 1.85 µM | OVCAR-4 1.99 µM | SF-295 2.12 µM | SK-MEL-28 1.92 µM | SK-OV-3 1.86 µM | SN12C 1.57 µM | SW-620 2.43 µM | UACC-257 2.02 µM | UO-31 2.32 µM

CN1CCN(c2ccc3nc(C4=C(O)C(=O)[C@@H]5C(=C4O)N=C(CO)N5C)[nH]c3n2)CC1
inactive: 786-0 > 100 µM | A549 > 100 µM | HT-29 > 100 µM | KM12 > 100 µM | MOLT-4 > 100 µM | NCI-H23 > 100 µM | OVCAR-4 75.2 µM | SF-295 > 100 µM | SK-MEL-28 > 100 µM | SK-OV-3 > 100 µM | SN12C > 100 µM | SW-620 > 100 µM | UACC-257 > 100 µM | UO-31 > 100 µM

CC1(C)OC2OC(C(COS(=O)(=O)C(F)(F)F)N=[N+]=[N-])C(OC(=O)c3ccccc3)C2O1 (stereo not drawn)
inactive: 786-0 > 100 µM | A549 > 100 µM | HT-29 > 100 µM | KM12 > 100 µM | MCF7 > 100 µM | MOLT-4 > 100 µM | NCI-H23 > 100 µM | OVCAR-4 > 100 µM | SF-295 > 100 µM | SK-MEL-28 > 100 µM | SK-MEL-2 > 100 µM | SK-OV-3 > 100 µM | SN12C > 100 µM | SW-620 > 100 µM | UACC-257 > 100 µM | UO-31 > 100 µM

C/C=C(/C)C(=O)O[C@H]1[C@H]2[C@@H]([C@@H](OC(C)=O)[C@H](C)C(=O)[C@@]34C[C@@H](C)C(=O)[C@]3(/C=C(\C)[C@H]1OC(C)=O)O4)C2(C)C
inactive: 786-0 2.67 µM | KM12 5.58 µM | MCF7 3.26 µM | MOLT-4 1.83 µM | NCI-H23 6.46 µM | OVCAR-4 4.9 µM | SF-295 3.89 µM | SK-MEL-2 4.27 µM | SK-OV-3 16 µM | SN12C 2.42 µM | SR 2.54 µM | SW-620 3.39 µM | UACC-257 4.09 µM | UO-31 3.85 µM

COc1ccc(S(=O)(=O)c2nnc(S(=O)(=O)Cc3ccccc3)s2)cc1
inactive: 786-0 18.8 µM | A549 20.8 µM | HT-29 17.9 µM | KM12 29.6 µM | MCF7 19.2 µM | MOLT-4 2.58 µM | NCI-H23 27.3 µM | OVCAR-4 44.5 µM | SF-295 33.3 µM | SK-MEL-28 20.5 µM | SK-MEL-2 18.3 µM | SK-OV-3 22.5 µM | SN12C 23.7 µM | SW-620 15 µM | UACC-257 14.7 µM | UO-31 21.6 µM

CCOP(=O)(/C=C/n1cnc2c(=O)n(C(C)=O)c(N)nc21)OCC
inactive: 786-0 > 100 µM | A549 > 100 µM | HT-29 > 100 µM | KM12 > 100 µM | MCF7 > 100 µM | MOLT-4 > 100 µM | NCI-H23 > 100 µM | OVCAR-4 > 100 µM | SF-295 > 100 µM | SK-MEL-28 > 100 µM | SK-MEL-2 > 100 µM | SK-OV-3 > 100 µM | SN12C > 100 µM | SW-620 > 100 µM | UACC-257 > 100 µM

Nc1nc(Cl)cc(NCC2(CO)CCC(Cc3ccccc3)C2)n1 (stereo not drawn)
inactive: 786-0 27.7 µM | A549 16.3 µM | HT-29 19.1 µM | KM12 20.2 µM | MCF7 11.2 µM | MOLT-4 3.74 µM | NCI-H23 2.87 µM | OVCAR-4 13.6 µM | SF-295 10.1 µM | SK-MEL-28 37.5 µM | SK-MEL-2 23.6 µM | SK-OV-3 36 µM | SN12C 52.7 µM | SW-620 15 µM | UACC-257 2.78 µM | UO-31 38.3 µM

NCCCN(CCCN(C(=O)Nc1ccccc1)c1ccccc1)C(=O)Nc1ccccc1
inactive: 786-0 33 µM | A549 47.1 µM | HT-29 29.8 µM | MCF7 35.1 µM | MOLT-4 52 µM | NCI-H23 27.2 µM | SF-295 23.2 µM | SK-MEL-28 16.7 µM | SK-MEL-2 21.9 µM | SK-OV-3 45.6 µM | SN12C 64.9 µM | SR 45 µM | SW-620 21.3 µM | UACC-257 22 µM | UO-31 20.8 µM

CCNC(=O)c1cc(Cl)ccc1NC(=O)C12CC3CC(CC(C3)C1)C2
inactive: 786-0 22.8 µM | A549 37.2 µM | HT-29 18 µM | KM12 27.2 µM | MCF7 39.1 µM | MOLT-4 34.8 µM | NCI-H23 56.8 µM | OVCAR-4 36.1 µM | SF-295 52.1 µM | SK-MEL-28 35.8 µM | SK-MEL-2 23.1 µM | SN12C 32.7 µM | SW-620 47.2 µM | UACC-257 30.4 µM | UO-31 22.3 µM

O=C(NC(=S)Nc1ccc(Br)cc1)c1ccc2c(c1)Sc1ccccc1O2
inactive: 786-0 51.5 µM | A549 > 100 µM | HT-29 > 100 µM | KM12 > 100 µM | MCF7 > 100 µM | MOLT-4 > 100 µM | NCI-H23 > 100 µM | SF-295 54.5 µM | SK-MEL-28 > 100 µM | SK-MEL-2 > 100 µM | SK-OV-3 40.2 µM | SN12C 95.7 µM | SR 36.6 µM | SW-620 > 100 µM | UACC-257 > 100 µM | UO-31 31.1 µM

O=C1NN=C2C=C(c3ccc(Cl)cc3)CC(c3cccc(Br)c3)C12 (stereo not drawn)
inactive: 786-0 > 100 µM | A549 37.4 µM | HT-29 > 100 µM | KM12 > 100 µM | MCF7 44 µM | MOLT-4 43.9 µM | NCI-H23 87.3 µM | OVCAR-4 > 100 µM | SF-295 91.4 µM | SK-MEL-2 84.5 µM | SK-OV-3 > 100 µM | SN12C > 100 µM | SR 38.3 µM | SW-620 81.8 µM | UACC-257 22.4 µM | UO-31 42.8 µM

CC[C@@H]1CC[C@@H]2[C@H](CC[C@]3(C)[C@@H](O)CC[C@@H]23)[C@H]1CO
inactive: 786-0 > 100 µM | A549 > 100 µM | HT-29 39.3 µM | KM12 > 100 µM | MCF7 > 100 µM | MOLT-4 50 µM | NCI-H23 > 100 µM | OVCAR-4 71 µM | SF-295 77.3 µM | SK-MEL-28 > 100 µM | SK-MEL-2 > 100 µM | SK-OV-3 > 100 µM | SN12C > 100 µM | SW-620 > 100 µM | UACC-257 > 100 µM | UO-31 > 100 µM

Oc1ccc(Cl)cc1C1=NC(/N=C\c2ccccc2)=NC(c2ccccc2)C1 (stereo not drawn)
inactive: 786-0 19.1 µM | A549 21.7 µM | HT-29 24.8 µM | KM12 10.5 µM | MCF7 7.83 µM | MOLT-4 > 100 µM | NCI-H23 3.87 µM | SF-295 > 100 µM | SK-MEL-28 > 100 µM | SK-MEL-2 > 100 µM | SK-OV-3 16.3 µM | SN12C 14.7 µM | SR 5.5 µM | SW-620 > 100 µM | UACC-257 > 100 µM | UO-31 10.5 µM
